Test results: patent publication US4694006A, “Acyl- or acyloxymethyl-allopurinol prodrugs” (priority 1983, dated 1987)
≈ marks a conversion by molar mass, not a printed value.

How the values were obtained:
[1] = Comparative absorption study following peroral administration, urinary excretion; assay type: in vivo; conditions: urine, po, human, dose corresponding to 100 mg allopurinol, read-out: total urinary excretion of allopurinol and oxipurinol
Protocol: A comparative absorption study was also made of allopurinol and the above mentioned prodrug following peroral administration. […] The total urinary excretion of allopurinol and oxipurinol was measured and found to correspond to 67% of the dose given for the allopurinol tablet and 92% for the preparation containing the prodrug derivative.

man [2] = conditions: rectal, various suppository preparations; cited from earlier work
[3] = Water-solubility of allopurinol and prodrugs; conditions: for solubility: water
Protocol: (§1) The water-solubility and lipophilicity of the allopurinol drugs
(§2) The apparent partition coefficients (P) for some allopurinol derivatives and allopurinol were measured using the widely used 1-octanol-water system. Similarly, the solubility of the derivatives in water or aqueous buffer solutions was determined.

rabbits [4] = experiment: Intravenous administration to four rabbits, plasma levels; assay type: in vivo, rabbit; conditions: i.v., 25 mg allopurinol equivalents
rabbits [5] = experiment: Bioavailability following rectal administration to rabbits (suppositories, micro-enemas); conditions: rabbits, rectal suppositories, 25 mg allopurinol equivalents, all three blood sampling times
Protocol: (§7) The suppositories or micro-enemas were administered to rabbits. After drug administration, blood samples were taken at various times and the plasma fraction assayed for allopurinol and its major metabolite oxipurinol using the HPLC method described above.

[6] = as above; conditions: rabbit, in vivo, 25 mg
Protocol: as §7

man [7] = conditions: cited from earlier work
[8] = 25° C; cited from earlier work
[9] = Between octanol and water
Protocol: as §1, §2

[10] = intravenous (Breithaupt & Tittel, 1982); cited from earlier work
[11] = In-vitro cleavage of allopurinol derivatives to allopurinol in 80% human plasma (pH 7.4) at 37° C; assay type: in vitro ADME; conditions: 80% plasma, pH 7.4, 37° C, read-out: Half-time (t0.5) of the conversion to allopurinol, 80% human plasma (converted)
Protocol: (§3) In-vitro cleavage of allopurinol derivatives
(§4) Solutions of various derivatives of allopurinol in aqueous buffer solutions or 80% human plasma solutions (pH 7.4) were kept at 37° C. The initial concentration of the derivatives was in the range 0.01-0.1 mg/ml. At various times an aliquot of the solutions was withdrawn and analyzed by HPLC for remaining derivative as well as for allopurinol. For the plasma solutions the aliquot withdrawn was deproteinized with ethanol or trichloroacetic acid and after centrifugation, the clear supernatant was injected on HPLC.
(§5) An HPLC method was used for the determination of allopurinol and its derivatives. In this method a reversed-phase LiChrosorb RP-8 column (250×4 mm) was eluated at ambient temperature with mixtures of methanol and 0.01M acetate buffer pH 4.5 or methanol and 0.03M phosphate buffer pH 7.0. The composition of the eluant was adjusted for each compound in order to provide an appropriate retention time. The flow rate was 1.2 ml/min and the column effluent was monitored spectrophotometrically at 252 nm or 274 nm. Quantitation of the compounds was done by measurement of peak heights.
(§6) The half-times of allopurinol formation from various derivatives at physiological conditions of pH and temperature are given in Table 2. It can be seen that in the presence of human plasma the rate of degradation is strongly accelerated, thus showing the susceptibility of the derivatives to undergo conversion into the parent active compound at conditions simiar to those prevailing in vivo.

[12] = In-vitro cleavage of allopurinol derivatives to allopurinol in pH 7.4 buffer at 37° C; assay type: physicochemical; conditions: read-out: Half-time (t0.5) of the conversion to allopurinol, pH 7.4 buffer (converted)
Protocol: as §3, §4, §5, §6

healthy human volunteer = experiment: Rectal micro-enema in a healthy human volunteer, urinary excretion; assay type: in vivo; conditions: 100 mg allopurinol equivalents
Protocol: The dose given (2 ml of a 0.5% methylcellulose solution containing 118 mg/ml of the prodrug) corresponded to 100 mg of allopurinol. Urine was collected over 5 days and aliquots were assayed for allopurinol and oxipurinol by a specific HPLC assay.

Row | half-life [11] | aqueous solubility relative to the parent compound (factor) [3] | bioavailability of the parent drug from the prodrug given intravenously (rabbits [4]) | half-life [12] | bioavailability of the parent drug from the prodrug given rectally (healthy human volunteer) | SMILES | dose excreted [1] | amount absorbed from suppository preparations administered rectally (man [2]) | solubility [3] | plasma levels of allopurinol after intravenous administration (rabbits [4]; all blood sampling times) | plasma levels of allopurinol after rectal administration (rabbits [5]) | Fa [6] | absolute systemic bioavailability of oral tablets (man [7]; man, oral tablets (Appelbaum et al., 1982)) | oral dose excreted in the stool unchanged (man [7]; oral dose (Elion et al., 1966)) | solubility in water [8] | log P [9] | dose recovered in the urine as intact allopurinol [10] | dose recovered in the urine, total [10]
1 | – | – | – | – | – | Oc1ncnc2[nH]ncc12 [Allopurinol, allopurinol] | 67% | < 5% | 500 µg/mL (≈ 3.67 mM) | below 1 μg/ml | below 1 μg/ml | < 2% | about 70% | 20-25% | about 0.5 mg/ml | -0.55 | 12% | about 88%
2 | 10 min | 5,000 | almost complete bioavailability | 49 min | virtually complete bioavailability | CCN(CC)CC(=O)OCn1ncc2c(=O)[nH]cnc21 | – | – | > 500000 µg/mL | – | – | – | – | – | – | – | – | –
